Experimental data taken from ChEMBL document CHEMBL1201862, “PubChem BioAssay data set” (2004).
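48-hour exposure; five concentrations; linearly interpolated endpoints. GI50: concentration for 50% inhibition of growth.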 Active and inactive are the calls of the source. No stated cut-off is given here; in the data, active = GI50 up to about 1.1 µM and inactive = higher.

Experiments:
Experiment in all cases: growth of human tumour cells (NCI), 48 h
SK-MEL-2 = system: SK-MEL-2
MDA-MB-435 = system: MDA-MB-435
K562 = system: K562
UACC-257 = system: UACC-257
HOP-92 = system: HOP-92
RXF 393 = system: RXF 393
SW-620 = system: SW-620
M14 = system: M14
HCC 2998 = system: HCC 2998
SK-MEL-28 = system: SK-MEL-28
IGROV-1 = system: IGROV-1
MDA-N = system: MDA-N
SF-268 = system: SF-268
PC-3 = system: PC-3
UACC-62 = system: UACC-62
TK-10 = system: TK-10
ACHN = system: ACHN
OVCAR-5 = system: OVCAR-5
A549 = system: A549
CCRF-CEM = system: CCRF-CEM
KM12 = system: KM12
NCI/ADR-RES = system: NCI/ADR-RES
SR = system: SR
SK-MEL-5 = system: SK-MEL-5
NCI-H23 = system: NCI-H23
U-251 = system: U-251
HCT-116 = system: HCT-116
OVCAR-3 = system: OVCAR-3
HCT-15 = system: HCT-15
LOX IMVI = system: LOX IMVI
MDA-MB-231 = system: MDA-MB-231
Hs-578T = system: Hs-578T
DU-145 = system: DU-145
HT-29 = system: HT-29
A498 = system: A498
COLO 205 = system: COLO 205
UO-31 = system: UO-31
NCI-H460 = system: NCI-H460
Malme-3M = system: Malme-3M
OVCAR-4 = system: OVCAR-4
NCI-H226 = system: NCI-H226
HL-60 = system: HL-60
SK-OV-3 = system: SK-OV-3
MOLT-4 = system: MOLT-4
MCF7 = system: MCF7
SF-539 = system: SF-539
RPMI-8226 = system: RPMI-8226
BT-549 = system: BT-549
786-0 = system: 786-0
SNB-19 = system: SNB-19
T47D = system: T47D
SN12C = system: SN12C
HOP-62 = system: HOP-62
SF-295 = system: SF-295
EKVX = system: EKVX
NCI-H522 = system: NCI-H522
OVCAR-8 = system: OVCAR-8
CAKI-1 = system: CAKI-1

CC1CC[C@@]2(OC1)OC1C[C@H]3[C@@H]4C/C(=N\N(C)C)[C@@]5(O)CC(O)CC[C@]5(C)[C@H]4CC[C@]3(C)C1[C@@H]2C (stereo not given in full) was tested, and the GI50 (SK-MEL-2) was 36.7 µM (inactive), the GI50 (MDA-MB-435) was 29.8 µM (inactive) and the GI50 (K562) was 38.7 µM (inactive). The GI50 (UACC-257) was 67.5 µM (inactive), the GI50 (HOP-92) was 98.2 µM (inactive) and the GI50 (RXF 393) was 22.9 µM (inactive). The GI50 (SW-620) was 55.8 µM (inactive), the GI50 (M14) was > 100 µM (inactive) and the GI50 (HCC 2998) was 68.5 µM (inactive). For the same molecule, the GI50 (SK-MEL-28) was > 100 µM (inactive), the GI50 (IGROV-1) was 89.1 µM (inactive) and the GI50 (MDA-N) was 23.3 µM (inactive). For the same molecule, the GI50 (SF-268) was 58.7 µM (inactive), the GI50 (PC-3) was 33.7 µM (inactive) and the GI50 (UACC-62) was 37.5 µM (inactive). The GI50 (TK-10) was 48.9 µM (inactive), the GI50 (ACHN) was 73.3 µM (inactive) and the GI50 (OVCAR-5) was 43.5 µM (inactive). For the same molecule, the GI50 (A549) was 48.6 µM (inactive), the GI50 (CCRF-CEM) was 31.3 µM (inactive) and the GI50 (KM12) was 29.3 µM (inactive). For the same molecule, the GI50 (NCI/ADR-RES) was 49.4 µM (inactive), the GI50 (SR) was 22.5 µM (inactive) and the GI50 (SK-MEL-5) was 42 µM (inactive). The GI50 (NCI-H23) was 30.5 µM (inactive), the GI50 (U-251) was 37.2 µM (inactive) and the GI50 (HCT-116) was 24.7 µM (inactive). The GI50 (OVCAR-3) was 43.9 µM (inactive), the GI50 (HCT-15) was 67.1 µM and the GI50 (LOX IMVI) was 42.5 µM (inactive). The GI50 (MDA-MB-231) was 52.1 µM (inactive), the GI50 (Hs-578T) was 33.3 µM (inactive) and the GI50 (DU-145) was > 100 µM (inactive). The GI50 (HT-29) was 20 µM (inactive), the GI50 (A498) was 34.7 µM (inactive) and the GI50 (COLO 205) was 43.9 µM (inactive). For the same molecule, the GI50 (UO-31) was 55.5 µM (inactive), the GI50 (NCI-H460) was 45.9 µM (inactive) and the GI50 (Malme-3M) was 29.7 µM (inactive). The GI50 (OVCAR-4) was 74.6 µM (inactive), the GI50 (NCI-H226) was > 100 µM (inactive) and the GI50 (HL-60) was 21.2 µM (inactive). The GI50 (SK-OV-3) was 76.6 µM (inactive), the GI50 (MOLT-4) was 34.1 µM (inactive) and the GI50 (MCF7) was 39.1 µM (inactive). The GI50 (SF-539) was 36 µM (inactive), the GI50 (RPMI-8226) was 41.6 µM (inactive) and the GI50 (BT-549) was 51.2 µM (inactive). For the same molecule, the GI50 (786-0) was 40.6 µM (inactive), the GI50 (SNB-19) was 38.7 µM (inactive) and the GI50 (T47D) was 31.5 µM (inactive). For the same molecule, the GI50 (SN12C) was 43.1 µM (inactive) and the GI50 (HOP-62) was 41.3 µM (inactive).

C=Cc1c(C)c(O)cc2c1-c1ccc(O)c(C)c1CC2 was tested, and the GI50 (SK-MEL-2) was 17.1 µM (inactive), the GI50 (MDA-MB-435) was 14.1 µM (inactive) and the GI50 (UACC-257) was 14.8 µM (inactive). The GI50 (HOP-92) was 23.2 µM (inactive), the GI50 (RXF 393) was 10.9 µM (inactive) and the GI50 (SW-620) was 23.4 µM (inactive). For the same molecule, the GI50 (M14) was 20.9 µM (inactive), the GI50 (HCC 2998) was 19 µM (inactive) and the GI50 (SK-MEL-28) was 16.2 µM (inactive). The GI50 (IGROV-1) was 16.6 µM (inactive), the GI50 (MDA-N) was 13.6 µM (inactive) and the GI50 (SF-268) was 18.5 µM (inactive). For the same molecule, the GI50 (PC-3) was > 10 µM (inactive), the GI50 (UACC-62) was 7.5 µM (inactive) and the GI50 (TK-10) was 13.1 µM (inactive). The GI50 (ACHN) was 29.4 µM (inactive), the GI50 (OVCAR-5) was 27.2 µM (inactive) and the GI50 (A549) was 19 µM (inactive). The GI50 (CCRF-CEM) was 12.5 µM (inactive), the GI50 (KM12) was 14.3 µM (inactive) and the GI50 (NCI/ADR-RES) was 21 µM (inactive). For the same molecule, the GI50 (SR) was 3.71 µM (inactive), the GI50 (SK-MEL-5) was 16 µM (inactive) and the GI50 (NCI-H23) was 17.1 µM (inactive). For the same molecule, the GI50 (U-251) was 14.3 µM (inactive), the GI50 (HCT-116) was 14.1 µM (inactive) and the GI50 (OVCAR-3) was 25.8 µM (inactive). For the same molecule, the GI50 (HCT-15) was 12.2 µM, the GI50 (LOX IMVI) was 16.1 µM (inactive) and the GI50 (MDA-MB-231) was 23.2 µM (inactive). For the same molecule, the GI50 (Hs-578T) was 3.11 µM (inactive), the GI50 (DU-145) was 14.1 µM (inactive) and the GI50 (HT-29) was 23.7 µM (inactive). The GI50 (A498) was 11.6 µM (inactive), the GI50 (COLO 205) was 19.3 µM (inactive) and the GI50 (UO-31) was 14.8 µM (inactive). For the same molecule, the GI50 (SF-295) was 14.9 µM (inactive), the GI50 (NCI-H460) was 20.1 µM (inactive) and the GI50 (Malme-3M) was 19.6 µM (inactive). For the same molecule, the GI50 (OVCAR-4) was 17.1 µM (inactive), the GI50 (NCI-H226) was 17.3 µM (inactive) and the GI50 (HL-60) was 15 µM (inactive). For the same molecule, the GI50 (EKVX) was 1.97 µM (inactive), the GI50 (NCI-H522) was 19.4 µM (inactive) and the GI50 (SK-OV-3) was 17 µM (inactive). For the same molecule, the GI50 (MOLT-4) was 11.6 µM (inactive), the GI50 (MCF7) was 20.9 µM (inactive) and the GI50 (SF-539) was 13.5 µM (inactive). The GI50 (OVCAR-8) was 17.5 µM (inactive), the GI50 (RPMI-8226) was 22.4 µM (inactive) and the GI50 (BT-549) was 19.5 µM (inactive). The GI50 (786-0) was 15.8 µM (inactive), the GI50 (SNB-19) was 24.5 µM (inactive) and the GI50 (T47D) was 10.9 µM (inactive). For the same molecule, the GI50 (CAKI-1) was 13.9 µM (inactive), the GI50 (SN12C) was 17.5 µM (inactive) and the GI50 (HOP-62) was 26.7 µM (inactive).
